According to patent publication US20100035755A1, “METHOD OF CONTROLLING WEEDS IN A TURF GRASS BY USING SULFONYLUREA COMPOUNDS” (Moghu Research Center Ltd., priority 2008, published 2010):

Experiments:
Dandelion = assay: Weed spectrum, greenhouse pot test; format: in vivo; conditions: two weeks after application
Bentgrass = assay: Turf grass selectivity, greenhouse pot test; format: in vivo, Agrostris palustris
Excerpt: Turf mats of Zoysia grass, bentgrass, Kentucky bluegrass, or perennial rye grass known as cool season turfgrass or western grass were purchased and cut into a piece having 10 cm×20 cm size. Then, each piece was transplanted in a rectangular plastic pot (surface area of 300 cm^2) in which sandy loam and mixed top soil (Boo-Nong Top Soil No. 3, for horticultural use) are filled in 1:1 ratio. After the transplantation, the grasses were cut once a week to maintain the blade height at 0.5-1.0 cm and cultivated for one month in a green house of which temperature was kept at 25˜30° C. for daytime and 15˜25° C. for nighttime, respectively. Then, the ‘test chemical’ of the above Examples 1 and 2 or ‘control chemical’ was applied thereto in an amount of 400, 200, 100, 50, 25, 12, 6, 3 g ai/ha. As a “control chemical”, pyrazolsulfuron ethyl wettable agent (manufactured by Dongbu Fine Chemicals; herein after, referred to as ‘control chemical No. 1’) and flazasulfuron (manufactured by Dongbu HiTek; herein after, referred to as ‘control chemical No. 2’), both sulfonylurea herbicides for a turf grass, were used. Application was carried out by using a track sprayer (R&D Sprayer, USA) equipped with Teejet 8002 nozzle (Spraying Systems Co., USA), and the application amount was adjusted to 2,000 L/ha, which is a typical application amount for a golf course in Korea. Application solution was prepared by diluting the “test chemical” or the “control chemical” with tap water. […] The test was repeated three times in a random arrangement and the results are given in average value of each test (see Table 2 below).

Trifolium repens = assay: Weed spectrum, greenhouse pot test; format: in vivo; conditions: two weeks after application
Excerpt: (§1) To a rectangular plastic pot (surface area of 300 cm^2) in which sandy loam and mixed top soil (Boo-Nong Top Soil No. 3, for horticultural use) are filled in 1:1 ratio, eight different kinds of weed seeds including Poa annua and Digitaria sanguinalis as poaceae weed, Cyperus amuricus as cyperaceae weeds and Trifolium repens, Kummerowia striata, fleabane, Veronica officinalis and Portulaca oleracea as broadleaf weeds were sewn (50 to 100 seeds per each weed). These weeds are representative examples of the weeds which typically thrive in a turf grass field.
(§2) The pot was kept in a greenhouse which was maintained at 25˜30° C. for daytime and 15˜25° C. for nighttime, respectively, and irrigation was carried out regularly. Fourteen days after seeding, when the turf grass and the weeds reached approximately at three-leaf stage, the weed seeds were again sewn in separate two pots or “Test chemical” and “Control chemical” were applied in the same manner as the method described above. In this regard, when plants were cultivated for two weeks and then the chemical application was carried out, it is designated as “post-emergence” treatment. On the other than, when the seeding was carried right before the chemical application, it is designated as “pre-emergence” treatment. Preparation of a chemical solution, application method, etc. are the same as above described for evaluation of turf grass selectivity. Two weeks after the chemical application, efficacy of the chemicals for each type of the weeds was evaluated (visual evaluation) based on 0 to 100 scale (i.e., 0 indicates no efficacy and 100 indicates complete weed control).

Digitaria sanguinalis = assay: Weed spectrum, greenhouse pot test; format: in vivo; conditions: for efficacy (0-100 scale): two weeks after application
Excerpt: as §1, §2

Veronica officinalis = assay: Weed spectrum, greenhouse pot test; format: in vivo; conditions: two weeks after application
Excerpt: as §1, §2

Kummerowia striata = assay: Weed spectrum, greenhouse pot test; format: in vivo; conditions: two weeks after application
Excerpt: as §1, §2

Poa annua = assay: Weed spectrum, greenhouse pot test; format: in vivo; conditions: for efficacy (0-100 scale): two weeks after application
Excerpt: as §1, §2

Portulaca oleracea = assay: Weed spectrum, greenhouse pot test; format: in vivo; conditions: two weeks after application
Excerpt: as §1, §2

Cyperus amuricus = assay: Weed spectrum, greenhouse pot test; format: in vivo; conditions: two weeks after application
Excerpt: as §1, §2

COc1nc(C)nc(NC(=O)NS(=O)(=O)c2cscc2C2(CF)OCCO2)n1 [Example 2, 3-(2-fluoromethyl-1,3-dioxalan-2-yl)-N-[(4-methoxy-6-methyltriazin-2-yl)aminocarbonyl]4-thiophene sulfonamide]
80: efficacy (0-100 scale) (Poa annua; Post-emergence, 25 g ai/ha)
3: phytotoxicity (visual assessment 0-10) (Bentgrass; 3 g ai/ha, 2 weeks) | phytotoxicity (visual assessment 0-10) (Bentgrass; 6 g ai/ha, 4 weeks)
100: efficacy (0-100 scale) (Dandelion; Post-emergence, 50 g ai/ha) | efficacy (0-100 scale) (Dandelion; Post-emergence, 100 g ai/ha) | efficacy (0-100 scale) (Dandelion; Pre-emergence, 50 g ai/ha) | efficacy (0-100 scale) (Dandelion; Pre-emergence, 100 g ai/ha) | efficacy (0-100 scale) (Digitaria sanguinalis; Post-emergence, 100 g ai/ha) | efficacy (0-100 scale) (Digitaria sanguinalis; Pre-emergence, 50 g ai/ha) | efficacy (0-100 scale) (Digitaria sanguinalis; Pre-emergence, 100 g ai/ha) | efficacy (0-100 scale) (Kummerowia striata; Post-emergence, 50 g ai/ha) | efficacy (0-100 scale) (Kummerowia striata; Post-emergence, 100 g ai/ha) | efficacy (0-100 scale) (Kummerowia striata; Pre-emergence, 100 g ai/ha) | efficacy (0-100 scale) (Portulaca oleracea; Post-emergence, 50 g ai/ha) | efficacy (0-100 scale) (Portulaca oleracea; Post-emergence, 100 g ai/ha) | efficacy (0-100 scale) (Portulaca oleracea; Pre-emergence, 50 g ai/ha) | efficacy (0-100 scale) (Portulaca oleracea; Pre-emergence, 100 g ai/ha)
40: efficacy (0-100 scale) (Trifolium repens; Post-emergence, 12 g ai/ha) | efficacy (0-100 scale) (Digitaria sanguinalis; Post-emergence, 12 g ai/ha) | efficacy (0-100 scale) (Veronica officinalis; Pre-emergence, 50 g ai/ha) | efficacy (0-100 scale) (Cyperus amuricus; Post-emergence, 25 g ai/ha)
at least 90%: weed controlled (Digitaria sanguinalis; 50 to 100 g/ha) | weed controlled (Poa annua; 50 to 100 g/ha)
1: phytotoxicity (visual assessment 0-10) (Bentgrass; 3 g ai/ha, 4 weeks)
70: efficacy (0-100 scale) (Trifolium repens; Pre-emergence, 50 g ai/ha) | efficacy (0-100 scale) (Digitaria sanguinalis; Post-emergence, 25 g ai/ha) | efficacy (0-100 scale) (Kummerowia striata; Post-emergence, 12 g ai/ha) | efficacy (0-100 scale) (Kummerowia striata; Post-emergence, 25 g ai/ha) | efficacy (0-100 scale) (Kummerowia striata; Pre-emergence, 12 g ai/ha) | efficacy (0-100 scale) (Portulaca oleracea; Post-emergence, 12 g ai/ha)
95: efficacy (0-100 scale) (Digitaria sanguinalis; Pre-emergence, 12 g ai/ha) | efficacy (0-100 scale) (Digitaria sanguinalis; Pre-emergence, 25 g ai/ha) | efficacy (0-100 scale) (Poa annua; Post-emergence, 100 g ai/ha)
30: efficacy (0-100 scale) (Trifolium repens; Pre-emergence, 12 g ai/ha) | efficacy (0-100 scale) (Veronica officinalis; Pre-emergence, 12 g ai/ha) | efficacy (0-100 scale) (Veronica officinalis; Pre-emergence, 25 g ai/ha) | efficacy (0-100 scale) (Cyperus amuricus; Post-emergence, 12 g ai/ha) | efficacy (0-100 scale) (Cyperus amuricus; Pre-emergence, 25 g ai/ha)
90: efficacy (0-100 scale) (Dandelion; Post-emergence, 12 g ai/ha) | efficacy (0-100 scale) (Dandelion; Post-emergence, 25 g ai/ha) | efficacy (0-100 scale) (Dandelion; Pre-emergence, 12 g ai/ha) | efficacy (0-100 scale) (Dandelion; Pre-emergence, 25 g ai/ha) | efficacy (0-100 scale) (Trifolium repens; Pre-emergence, 100 g ai/ha) | efficacy (0-100 scale) (Digitaria sanguinalis; Post-emergence, 50 g ai/ha) | efficacy (0-100 scale) (Kummerowia striata; Pre-emergence, 25 g ai/ha) | efficacy (0-100 scale) (Kummerowia striata; Pre-emergence, 50 g ai/ha) | efficacy (0-100 scale) (Poa annua; Post-emergence, 50 g ai/ha) | efficacy (0-100 scale) (Poa annua; Pre-emergence, 50 g ai/ha) | efficacy (0-100 scale) (Poa annua; Pre-emergence, 100 g ai/ha) | efficacy (0-100 scale) (Portulaca oleracea; Post-emergence, 25 g ai/ha) | efficacy (0-100 scale) (Portulaca oleracea; Pre-emergence, 12 g ai/ha) | efficacy (0-100 scale) (Portulaca oleracea; Pre-emergence, 25 g ai/ha)
10: phytotoxicity (visual assessment 0-10) (Bentgrass; 25 g ai/ha, 2 weeks) | phytotoxicity (visual assessment 0-10) (Bentgrass; 25 g ai/ha, 4 weeks) | phytotoxicity (visual assessment 0-10) (Bentgrass; 50 g ai/ha, 2 weeks) | phytotoxicity (visual assessment 0-10) (Bentgrass; 50 g ai/ha, 4 weeks) | phytotoxicity (visual assessment 0-10) (Bentgrass; 100 g ai/ha, 2 weeks) | phytotoxicity (visual assessment 0-10) (Bentgrass; 100 g ai/ha, 4 weeks) | phytotoxicity (visual assessment 0-10) (Bentgrass; 200 g ai/ha, 2 weeks) | phytotoxicity (visual assessment 0-10) (Bentgrass; 200 g ai/ha, 4 weeks) | phytotoxicity (visual assessment 0-10) (Bentgrass; 400 g ai/ha, 2 weeks) | phytotoxicity (visual assessment 0-10) (Bentgrass; 400 g ai/ha, 4 weeks)
20: efficacy (0-100 scale) (Veronica officinalis; Post-emergence, 12 g ai/ha) | efficacy (0-100 scale) (Veronica officinalis; Post-emergence, 25 g ai/ha) | efficacy (0-100 scale) (Veronica officinalis; Post-emergence, 50 g ai/ha) | efficacy (0-100 scale) (Veronica officinalis; Post-emergence, 100 g ai/ha) | efficacy (0-100 scale) (Cyperus amuricus; Pre-emergence, 12 g ai/ha)
7: phytotoxicity (visual assessment 0-10) (Bentgrass; 12 g ai/ha, 2 weeks)
50: efficacy (0-100 scale) (Trifolium repens; Post-emergence, 25 g ai/ha) | efficacy (0-100 scale) (Veronica officinalis; Pre-emergence, 100 g ai/ha) | efficacy (0-100 scale) (Poa annua; Pre-emergence, 12 g ai/ha) | efficacy (0-100 scale) (Cyperus amuricus; Post-emergence, 50 g ai/ha) | efficacy (0-100 scale) (Cyperus amuricus; Post-emergence, 100 g ai/ha) | efficacy (0-100 scale) (Cyperus amuricus; Pre-emergence, 50 g ai/ha)
60: efficacy (0-100 scale) (Trifolium repens; Post-emergence, 50 g ai/ha) | efficacy (0-100 scale) (Trifolium repens; Post-emergence, 100 g ai/ha) | efficacy (0-100 scale) (Trifolium repens; Pre-emergence, 25 g ai/ha) | efficacy (0-100 scale) (Poa annua; Post-emergence, 12 g ai/ha) | efficacy (0-100 scale) (Poa annua; Pre-emergence, 25 g ai/ha) | efficacy (0-100 scale) (Cyperus amuricus; Pre-emergence, 100 g ai/ha)
5: phytotoxicity (visual assessment 0-10) (Bentgrass; 6 g ai/ha, 2 weeks) | phytotoxicity (visual assessment 0-10) (Bentgrass; 12 g ai/ha, 4 weeks)
